Where two headings read alike, the source gives them in different places. No end group written: not given here.
Columns and labels:
BJ-5ta cells = test: Cell viability assay (MTT); assay type: cell-based
Description: (§1) Fibroblast cells (BJ-5ta, CRL-4001) were cultured in complete medium, a 4:1 mixture of Dulbecco's medium and Medium 199 with supplements as 4 parts of Dulbecco's Modified Eagle's Medium containing 4 mM L-glutamine, 4.5 g/L glucose and 1.5 g/L sodium bicarbonate, 1 part of Medium 199 supplemented with 0.01 mg/mL hygromycin B 10% fetal bovine serum with incubation at 37 °C under 5% CO2 atmosphere.
A total of 10^4 fibroblasts/well were seeded in 96-well plates and treated with pea, rice and collagen peptides (from 1 to 20 mg/mL) and ascorbic acid (from 0.1 to 10 mg/mL), CR1, CR2, CP1, CP2, CP3, CP4 and CP5 peptides (from 25 to 500 µM) or H2O2 (from 0.1 to 1 mg/mL) or vehicle (H2O) in complete growth media for 48 h at 37 °C under 5% CO2 atmosphere. Subsequently, the treatment solvent was aspirated and 100 µL/well of 3-(4,5-dimethylthiazol-2-yl)-2,5-diphenyltetrazolium bromide (MTT) filtered solution added. After 2 h of incubation at 37 °C under 5% CO2 atmosphere, 0.5 mg/mL solution was aspirated and 100 µL/well of the lysis buffer (8 mM HCl + 0.5% NP-40 in DMSO) added. After 10 min of slow shaking, the absorbance at 575 nm was read on the Synergy H1 fluorescence plate reader (Biotek, Bad Friedrichshall, Germany).
In this example, the effect of pea and rice peptides was tested on BJ-5ta cells in a modified MTT assay as described above. […]

ABTS assay = assay type: biochemical
Description: The ABTS assay is based on the reduction of the 2,2-azino-bis-(3-ethylbenzothiazoline-6-sulfonic acid (ABTS) radical induced by antioxidants. The ABTS radical cation (ABTS+● was prepared by mixing a 7 mM ABTS solution (Sigma-Aldrich, Milan, Italy) with 2.45 mM potassium persulfate (1:1) and stored for 16 h at room temperature and in dark. To prepare the ABTS reagent, the ABTS+● was diluted in 5 mM phosphate buffer (pH 7.4) to obtain a stable absorbance of 0.700 (±0.02) at 730 nm. For the assay, 10 µL of samples were added to 140 µL of diluted the ABTS+● at the following final concentrations: 0.01 and 0.1 mg/mL for pea and rice peptides; 0.1, 1, 10 and 20 mg/mL for collagen peptides; 0.0001, 0.001 and 0.01 mg/mL for ascorbic acid; 1, 10, 25, 50, 100 µM for CR1, CP1 and CP2 peptides. The microplate was incubated for 30 min at 30 °C and the absorbance was read at 730 nm using a Synergy™ HT-multimode microplate reader (Biotek Instruments, Winooski, VT, USA). The TEAC values were calculated using a Trolox (Sigma-Aldrich, Milan, Italy) calibration curve (60-320 µM).
In this example, the antioxidant activity of pea and rice peptides was tested in vitro in an ABTS Assay as described above.
In this example, the antioxidant activity of peptides CP1, CP2 and CR1 (see Table 1 above) was tested in vitro in an ABTS Assay as described above.

FRAP assay [1] = assay type: biochemical; settings: pea and rice peptides 0.01-1 mg/mL; collagen 1-20 mg/mL; ascorbic acid 0.00001-0.1 mg/mL
Caco-2 cells [2] = test: Trans-epithelial transport of digested and non-digested hydrolysates, LC-MS/MS of AP and BL samples; settings: without H2O2; for common sequences in BL rice digested vs. BL rice not digested samples: rice hydrolysates; for common sequences in AP pea digested vs. BL pea digested samples: digested pea hydrolysate; for detection in the AP pea and BL pea samples: non-digested pea hydrolysate
Description: (§5) Caco-2 cells, obtained from INSERM (Paris, France) were routinely sub-cultured at 50% confluence and maintained at 37°C in a 5% CO2 atmosphere in DMEM containing 25 mM of glucose, 3.7 g/L of NaHCOs, 4 mM of stable L-glutamine, 1% non-essential amino acids, 100 U/L of penicillin and 100 µg/L of streptomycin (complete medium), supplemented with 10% heat-inactivated FBS. To facilitate the establishment of a confluent cell monolayer, cells were seeded on a Transwell at a density of 3.5 × 10^5 cells/cm^2 in complete medium supplemented with 10% FBS in both the AP and BL compartments for a period of 2 days. Cells were seeded, and on day three, they were moved to an FBS-free medium in the AP compartment. They were then allowed to differentiate for 18-21 days, with three weekly medium changes in between. Transepithelial electrical resistance (TEER) of differentiated Caco-2 cells was measured at 37 °C using the Millicell voltmeter device (Millipore Co., Billerica, MA, USA) both before and after the transport experiments for monitoring the integrity of the cell monolayers.
(§6) TEER measurement was used to verify the integrity and differentiation of the cell monolayer prior to transport experiments. Pea and rice peptides trans-epithelial transit was assessed in differentiated Caco-2 cells in transport buffer solution (137 mM NaCl, 5.36 mM KCl, 1.26 mM CaCl2, and 1.1 mM MgCl2, 5.5 mM glucose). The apical (AP) solutions were kept at pH 6.0 (buffered with 10 mM morpholinoethane sulfonic acid) and the basolateral (BL) solutions were kept at pH 7.4 (buffered with 10 mM N-2-hydroxyethylpiperazine-N-4-butanesulfonic acid) in order to replicate the pH conditions found in vivo in the small intestinal mucosa. Before the transport assay, cells were equilibrated in HBSS for 15 minutes at 37°C. In the AP compartment with the AP transport solution (500 µL) and the BL compartment with the BL transport solution (700 µL), rice and pea (5 mg/mL) were added. All BL and AP solutions were collected after two hours of absorption experiment carried out at 37°C, and they were kept at - 80°C before analysis. Transport experiments were performed in duplicate.
(§7) The enzymatic hydrolysis of pea and rice peptides was performed using pepsin and trypsin to simulate gastrointestinal digestion. For pepsin and trypsin digestion, the pH of the solution was adjusted to pH 2 and 8, respectively, by adding 1 M HCl or 1 M NaOH. The pepsin and trypsin solutions were added to the solution at a 1:100 (w/w) E/S ratio. After 60 min of peptic digestion at 37°C, pepsin was inactivated by adjusting the pH to 8; whereas the tryptic digestion (15 minutes) was blocked by heating the solution at 95 °C for 5 min (Lo et al., 2005). Collagen, pea and rice hydrolysates were passed through ultrafiltration membranes for the complete enzymes removal, using a Millipore UF system (Millipore, Bedford, MA, USA). Recovered peptides were lyophilized and stored at -80 °C for high-resolution LC-MS/MS analysis.

Caco-2 cells [3] = tested on: Caco-2 cells
Description: as §5, §6, §7

elastin [4] = test: Western blot analysis, elastin protein level; assay type: cell-based
Description: as §1
A total of 2.2 × 10^5 BJ-5ta cells/well were seeded on 24-well plates and incubated at 37 °C under a 5% CO2 atmosphere. The following day, cells were treated with pea, rice and collagen peptides (5 mg/mL), CR1, CR2, CP1, CP4 and CP5 (250 and 500 µM), CP2 (100, 250 and 500 µM) or vehicle (H2O) in a complete growth medium for 24 h. The day after, cells were stimulated with H2O2 (200 µM) or vehicle (H2O) for 1 h. After each treatment, cells were scraped in 30 µL ice-cold lysis buffer [RIPA buffer + inhibitor cocktail + 1:100 PMSF + 1:100 Na-orthovanadate] and transferred in an ice-cold microcentrifuge tube. After centrifugation at 13.300g for 15 min at 4 °C, the supernatant was recovered and transferred into a new ice-cold tube. Total proteins were quantified by Bradford method and 50 µg of total proteins loaded on a precast 7.5% Sodium Dodecyl Sulfate - Polyacrylamide (SDS-PAGE) gel at 130 V for 45 min. Subsequently, the gel was pre-equilibrated with 0.04% SDS in H2O for 15 min at RT and transferred to a nitrocellulose membrane (Mini nitrocellulose Transfer Packs,) using a trans-Blot Turbo at 1.3 A, 25 V for 7 min. Target proteins, on milk or BSA blocked membrane, were detected by primary antibodies as follows: anti-collagen, anti-elastin, anti-phospho(Thr172)-AMPK, anti-phospho(Ser473)-Akt, anti-NF-κB and anti-β-actin. Secondary antibodies conjugated with HRP and a chemiluminescent reagent were used to visualize target proteins and their signal was quantified using the Image Lab Software (Biorad). The internal control β-actin was used to normalize loading variations. […]

collagen [5] = test: ELISA assay, collagen secretion; assay type: cell-based, human; settings: peptides of Table 1, BJ-5ta cells
Description: (§2) Cytokines, metalloproteases, collagen and elastin quantification was performed using human Authentikine® ELISA kits (Proteintech, Rosemont, USA) and Cusabio ELISA kits (Houston, TX, USA) according to the manufacturer's instruction and. Briefly, the supernatants collected from treated and H20-stimulated bj-5ta cells were centrifuged at 13,300 × g for 10 minutes at 4°C, then the pellet and insoluble material were discarded. For the experiments, 100 µL of samples were added to each well and the microplate was incubated for 2 hours at 37°C. After the incubation, the solutions were discarded and each well washed 4 times with 300 µL of Wash Buffer solution, then 100 µL of Detection antibody solution were added to each well and the microplate was incubated for 1 hours at 37°C. […] After 4 washes, the TMB substrate (100 µL/well) was added and reactions were stopped after 20 min with 50 µL of Stop Solution and the absorbance at 450 and 540 nm was measured using the Synergy H1 plate reader (BioTek Instruments).
(§3) In this example, the secretion of collagen and elastin with pea and rice peptides was tested in vitro by an ELISA assay as described above. Thereby, ECM stability is evaluated.
(§4) In this example, the secretion of collagen and elastin with the peptides of Table 1 was tested in vitro by an ELISA assay as described above. Thereby, ECM stability is evaluated.

collagen [6] = test: Western blot analysis, collagen protein level; assay type: cell-based
Description: as §1
A total of 2.2 × 10^5 BJ-5ta cells/well were seeded on 24-well plates and incubated at 37 °C under a 5% CO2 atmosphere. The following day, cells were treated with pea, rice and collagen peptides (5 mg/mL), CR1, CR2, CP1, CP4 and CP5 (250 and 500 µM), CP2 (100, 250 and 500 µM) or vehicle (H2O) in a complete growth medium for 24 h. The day after, cells were stimulated with H2O2 (200 µM) or vehicle (H2O) for 1 h. […] Total proteins were quantified by Bradford method and 50 µg of total proteins loaded on a precast 7.5% Sodium Dodecyl Sulfate - Polyacrylamide (SDS-PAGE) gel at 130 V for 45 min. […] Target proteins, on milk or BSA blocked membrane, were detected by primary antibodies as follows: anti-collagen, anti-elastin, anti-phospho(Thr172)-AMPK, anti-phospho(Ser473)-Akt, anti-NF-κB and anti-β-actin. Secondary antibodies conjugated with HRP and a chemiluminescent reagent were used to visualize target proteins and their signal was quantified using the Image Lab Software (Biorad). […]

FRAP assay [7] = assay type: biochemical; settings: synthesized peptides up to 200 µM
Description: The FRAP assay evaluates the ability of a sample to reduce ferric ion (Fe3^+) into ferrous ion (Fe2^+). Thus, 10 µL of samples were mixed with 140 µL of FRAP reagent until reaching the following concentrations: 0.01, 0.1 and 1 mg/mL for pea and rice peptides; 1, 10 and 20 mg/mL for collagen peptides; 0.00001, 0.0001, 0.001 and 0.1 mg/mL for ascorbic acid; 10, 100 and 200 µM for CR1 and CP5 peptides; 25, 50, 100 and 200 µM for CP1 and CP2 peptides. The FRAP reagent was prepared by mixing 1.3 mL of a 10 mM TPTZ (Sigma-Aldrich, Milan, Italy) solution in 40 mM HCl, 1.3 mL of 20 mM FeCl3 × 6H2O and 13 mL of 0.3 M acetate buffer (pH 3.6). The microplate was incubated for 30 min at 37 °C and the absorbance was read at 595 nm. The results were calculated by a Trolox (Sigma-Aldrich, Milan, Italy) standard curve obtained using different concentrations (3-400 µM)). Absorbances were recorded on a Synergy™ HT-multimode microplate reader.
In this example, the antioxidant activity of pea and rice peptides was tested in vitro in a FRAP Assay as described above.
In this example, the antioxidant activity of peptides CP1, CP2, CP5 and CR1 was tested in vitro in a FRAP Assay as described above.

elastin [8] = test: ELISA assay, elastin secretion; assay type: cell-based, human
Description: as §2, §3, §4

[9] = 250 µM, screening among CR1, CR2, CP1, CP2, CP4, CP5
[10] = 500 µM, among CR1, CR2, CP1, CP2, CP4, CP5

OO [H2O2]
concentration up to which no cytotoxic effects (BJ-5ta cells; skin fibroblasts exposed to increasing concentration of H2O2): ≤ 400 µM

O=C1O[C@H]([C@@H](O)CO)C(O)=C1O [ascorbic acid]
ABTS radical scavenging activity, dependence on concentration (ABTS assay; pea and rice peptides 0.01 and 0.1 mg/mL, collagen 0.1-20 mg/mL, ascorbic acid 0.0001-0.01 mg/mL): decreasing radical scavenging activity with increasing concentration | concentrations with effects on cellular viability (BJ-5ta cells; BJ-5ta cells, 48 h): more than 1 mg/mL | ferric reducing antioxidant power, dependence on concentration (FRAP assay [1]): increase

AEDVGEEVER [CR1, AEDVGEEVER]
common sequences in BL rice digested vs. BL rice not digested samples (Caco-2 cells [2]): found

AGFAGDDAPR [CR2, AGFAGDDAPR]
common sequences in BL rice digested vs. BL rice not digested samples (Caco-2 cells [3]): found

DWLLGATGTGK (DVVLLGATGTGK; listed as Oryza sativa) [CR3]
common sequences in BL rice digested vs. BL rice not digested samples (Caco-2 cells [2]): found

DWPEWVR [CP2, synthesized pea peptide]
modulation of elastin protein level (elastin [4]; [9]): highest modulation of elastin protein level | modulation of elastin protein level compared to CP4 and CP5 (elastin [4]; 500 µM): higher modulation of elastin protein level compared to CP4 and CP5 | modulation of elastin protein level (elastin [4]; [10]): highest modulation of elastin protein level | stimulation of collagen secretion (collagen [5]): strongest stimulation of collagen secretion | common sequences in AP pea digested vs. BL pea digested samples (Caco-2 cells [2]): found | detection in the AP pea and BL pea samples (Caco-2 cells [2]): detected | ABTS radical scavenging activity compared with CR1 (ABTS assay; synthesized peptides 1-100 µM): lower than with CR1 | ABTS radical scavenging activity, dependence on concentration (ABTS assay; synthesized peptides 1-100 µM): decreases with increasing concentration | ABTS radical scavenging activity (ABTS assay; synthesized peptides 1-100 µM, compared to control C): lower than the one of the control C | modulation of collagen protein level (collagen [6]; [9]): highest modulation of collagen protein level | modulation of collagen protein level (collagen [6]; [10]): highest modulation of collagen protein level | ferric reducing antioxidant power compared with CR1 (FRAP assay [7]): higher than with CR1 | ferric reducing antioxidant power, dependence on concentration (FRAP assay [7]): increases with increasing concentration | ferric reducing antioxidant power (FRAP assay [7]; compared to control C): higher than the control C | stimulation of elastin secretion (elastin [8]; CP2 at 100 µM versus other peptides at 500 µM): higher than for the other tested peptides at a concentration of 500 µM | stimulation of elastin secretion (elastin [8]; peptides of Table 1, BJ-5ta cells): strongest stimulation of elastin secretion

ENIADAAR [CP3, ENIADAAR]
common sequences in AP pea digested vs. BL pea digested samples (Caco-2 cells [2]): found | detection in the AP pea and BL pea samples (Caco-2 cells [2]): detected

GSRQEEEEDEDEERQPR [CP4, GSRQEEEEDEDEERQPR]
common sequences in AP pea digested vs. BL pea digested samples (Caco-2 cells [2]): found | detection in the AP pea and BL pea samples (Caco-2 cells [2]): detected

SEQ-ID:2: peptide identified by MS in pea hydrolysate; sequence not printed in the text (DTSETWAIR; listed as Pisum sativum)
common sequences in AP pea digested vs. BL pea digested samples (Caco-2 cells [2]): found | detection in the AP pea and BL pea samples (Caco-2 cells [2]): detected

SEQ-ID:12: peptide identified by MS in pea hydrolysate; sequence not printed in the text (SSNNQLDQMPR; listed as Pisum sativum)
common sequences in AP pea digested vs. BL pea digested samples (Caco-2 cells [2]): found | detection in the AP pea and BL pea samples (Caco-2 cells [2]): detected

SEQ-ID:15: peptide identified by MS in pea hydrolysate; sequence not printed in the text (LDEAAEPAALER; listed as Pisum sativum)
common sequences in AP pea digested vs. BL pea digested samples (Caco-2 cells [2]): found

SEQ-ID:35: peptide identified by MS in pea hydrolysate; sequence not printed in the text (SVFNGEVR; listed as Pisum sativum)
common sequences in AP pea digested vs. BL pea digested samples (Caco-2 cells [2]): found

— patent EP4666996A1, “COMPOSITION CONTAINING PEPTIDES OF VEGETABLE ORIGIN” (Quiris Healthcare GmbH & Co. KG, priority 2024, dated 2025)
